According to patent publication US6593342B1, “Pharmaceutical compositions comprising 2-quinolones” (Laboratoire L. Lafon, priority 1998, dated 2003):

Columns and labels:
[1] = test system: SW1088; test: MTT test, SW1088; format: cell-based; details: Homo sapiens, 10^−5 M, 72 hours, control = 100%, mean ± SEM, read-out: average optical density (MTT), percentage relative to control
Method: The influence of the compounds of formulae (I) and (Ia) on non-clonogenic cells was evaluated with the aid of the MTT calorimetric test.
The principle of the MTT test is based on the mitochondrial reduction, by the metabolically active live cells, of the yellow-colored product MTT (3-(4,5-dimethylthiazol-2-yl)-2,5-diphenyltetrazolium bromide) to a blue-colored product, formazan. The amount of formazan thus obtained is directly proportional to the amount of live cells present in the culture well(s). This amount of formazan is measured by spectrophotometry.
The cell lines are maintained as a monolayer culture at 37° C. in stoppered culture dishes containing MEM 25 MM HEPES (Minimum Essential Medium) base medium. This medium is suited to the growth of a range of various mammalian diploid or primary cells. This medium is then supplemented with:
an amount of 5% of FCS (Foetal Calf Serum) decomplemented at 56° C. for 1 hour,
0.6 mg/ml of L-glutamine,
200 μg/ml of streptomycin,
The 12 human cancer cell lines which were used were obtained from the American Type Culture Collection (ATCC, Rockville, Md., USA). These 12 cell lines are:
SW1088 (code ATCC: HTB-12) which is an astrocytoma,
Experimentally: 100 μl of a cell suspension containing 20 000 to 50 000 (depending on the cell type used) cells/ml of culture medium are inoculated in 96-well flat-bottomed multi-well plates and are incubated at 37° C., under an atmosphere comprising 5% CO2 and 70% humidity. After incubation for 24 hours, the culture medium is replaced with 100 μl of fresh medium containing either the various test compounds at concentrations ranging from 10^−5 to 10^−10 M or the solvent used to dissolve the test products (control condition). After incubation for 72 hours under the above conditions, the culture medium is replaced with 100 μl of a yellowish solution of MTT dissolved at a rate of 1 mg/ml in RPMI 1640. The microplates are reincubated for 3 hours at 37° C. and are then centrifuged for 10 minutes at 400×g. The yellowish solution of MTT is removed and the blue formazan crystals formed in the cell are dissolved in 100 μl of DMSO. The microplates are then shaken for 5 minutes. The intensity of the resulting blue coloration, and thus of the conversion of the yellow product MTT into blue formazan by the cells that are still alive at the end of the experiment, is quantified by spectrophotometry using a Dynatech Immunoassay System machine at wavelengths of 570 nm and 630 nm corresponding, respectively, to the maximum absorption wavelengths of formazan and to the background noise. Software incorporated in the spectrophotometer calculates the average optical density values and the standard deviation (SD) and standard error of mean (SEM) values.
By way of example, the results of the average optical density, expressed as a percentage relative to the average optical density measured under the control condition (set equal to 100%), obtained at a concentration of 10^−5 M on the 12 abovementioned tumor cell lines are given in Table II.

[2] = test system: MCF7; test: Clonogenic test (soft agar colony growth), MCF7; format: cell-based, human; details: 21 days, control = 100%, mean ± SEM
Description: 1—Interaction (Stimulation or Inhibition of Proliferation) With the Generation of Clonogenic Cells (Clonogenic Test)
The test used is that described by Hamburger et al. (Science, 1977; 197, 461-463) and Salmon et al. (New England J. Med., 298, 1321-1327). A cell is considered clonogenic if it has the capacity to proliferate and to give rise to a cell colony. “Human tumor stem cells” are the cells which are the source of the neoplastic cells which constitute a given tumor. These tumor stem cells are responsible for the relapse processes which may be observed after surgical resection of primary tumors and are also responsible for the formation of metastases. In a tumor or a tumor cell line, these clonogenic stem cells differ from the other cells of the tumor or from the neoplastic cell line under consideration in that they conserve their capacity to proliferate in the absence of any solid support.
In this test, the tumor cells are cultured on a semi-solid support consisting of agar. […] In a tumor cell population, cultured on such a support, it is these clonogenic cells (associated with an unlimited number of cell divisions and whose proliferation is referred to by M. I. Dawson as “anchorage-independent [clonal] growth”) which are capable of growing. The percentage of these clonogenic cells in a tumor or a cell line ranges between 0.1% and 0.001%.
The influence of the compounds of formulae (I) and (Ia) on the growth of the cell colonies obtained by culturing, for example, the mammalian tumor lines MCF7 and MXT and the colorectal line HT-29 on the semi-liquid culture medium known as “soft agar” was measured. On such a medium, only the clonogenic cells referred to by M. I. Dawson as “anchorage-independent (clonal) cells” survive and grow. The growth of these cells in such a “non-adherent” mode bears witness to their degree of tumorigenicity. The inhibition of the growth of the size of a tumor in which a larger number of clonogenic cells has developed then becomes the evidence of reinforced cytotoxic activity.
Conversely, this test can also reveal that a compound is capable of inhibiting the generation/proliferation of clonogenic cells, thus making the tumor less able to grow and thus reducing the population of tumor cells.
The tumor cell lines studied are maintained in culture in 25 cm^2 falcon dishes. They are then trypsinized and the cells are fully dissociated from each other. The percentage of live cells is determined after staining with trypan blue. A cell suspension at a concentration of from 5·10^4 to 15·10^4 cells/ml (depending on the cell type under consideration) is prepared in a 0.3% agar solution. Next, 200 μl of this suspension are inoculated in Petri dishes 35 mm in diameter, in which are placed 3 ml of a base layer consisting of a 0.5% agar solution. The 200 μl of cell suspension are in turn covered with 1.8 ml of an upper layer consisting of a 0.3% agar solution. The dishes are then placed in an incubator at 37° C., 5% CO2 and 70% humidity until the treatment. This treatment is carried out about 1 to 2 hours after the inoculation. The test compounds are prepared at a concentration 100 times greater than the desired concentration and 50 μl of these treating solutions are placed over the upper layer of agar in the corresponding dishes. In the present study, the final concentration of the test products is 10^−5, 10^−7 and 10^−9 M. The dishes are then kept in an incubator for 21 days. On the 21st day the dishes are treated by depositing on the upper layer 100 μl of a 1 mg/ml solution of MTT (3-(4,5-dimethylthiazol-2-yl)-2,5-diphenyltetrazolinium bromide prepared with RPMI 1640 medium) for 3 h at 37° C. After this period, the cell colonies are fixed by adding 2 ml of formalin per dish. After fixing for 24 hours, the formalin is evaporated off and the number of stained cell colonies, thus consisting of metabolically active cells, and whose surface area is greater than 100 μm^2, is determined using an inverted microscope. […]

| Structure (SMILES) | viability at 10 µM [1] [%] | average number of clones of clonogenic cells, percentage relative to control ([2]; 10^−5 M) [%] | average number of clones of clonogenic cells, percentage relative to control ([2]; 10^−7 M) [%] | average number of clones of clonogenic cells, percentage relative to control ([2]; 10^−9 M) [%] |
| --- | --- | --- | --- | --- |
| COc1ccc(-c2cc3c(OC)cc(OC)cc3[nH]c2=O)cc1 [CRL8246, 5,7-Dimethoxy-3-(4-methoxyphenyl)-1,2-dihydro-2-quinolinone] | 108 ± 1.1 | 126.8 ± 9.9 | 145.7 ± 8.9 | 139.1 ± 6.6 |
| COc1ccc(-c2cc3c(OC)cc(OC)cc3n(CCC#N)c2=O)cc1 [CRL8247, 3-[5,7-Dimethoxy-3-(4-methoxyphenyl)-2-oxo-1,2-dihydro-1-quinolinyl]propanenitrile] | 85.8 ± 3.6 | 51.5 ± 2.8 | 81.9 ± 1.2 | 98.3 ± 4.2 |
| COc1ccc(-c2cc3c(OC)cc(OC)cc3n(CCc3nnn[nH]3)c2=O)cc1 [CRL8256, 1-[2-(1H-1,2,3,4-Tetrazol-5-yl)ethyl]-5,7-dimethoxy-3-(4-methoxyphenyl)-1,2-dihydro-2-quinolinone] | 72.1 ± 3.3 | 51.6 ± 3.7 | 83.8 ± 3.4 | 97.9 ± 5.6 |
| CCN(CC)C(=O)CCn1c(=O)c(-c2ccc(OC)cc2)cc2c(OC)cc(OC)cc21 [CRL8283, N,N-Diethyl-3-[5,7-dimethoxy-3-(4-methoxy-phenyl)-2-oxo-1,2-dihydro-1-quinolinyl]propanamide] | 84.7 ± 3.1 | 56.5 ± 4.9 | 106.2 ± 4.8 | 97.4 ± 5.8 |
| CCN(CC)C(=O)Cn1c(=O)c(-c2ccc(OC)cc2)cc2c(OC)cc(OC)cc21 [CRL8315, N,N-Diethyl-2-[5,7-dimethoxy-3-(4-methoxy-phenyl)-2-oxo-1,2-dihydro-1-quinolinyl]acetamide] | 89.1 ± 0.6 | 119.6 ± 5.6 | 127 ± 8.8 | 157.1 ± 12.2 |
| COc1ccc(-c2cc3c(OC)cc(OC)cc3n(CCN(C)C)c2=O)cc1 [CRL8316, 1-[2-(Dimethylamino)ethyl]-5,7-dimethoxy-3-(4-methoxyphenyl)-1,2-dihydro-2-quinolinone] | 107 ± 2 | 23.2 ± 1.8 | 84 ± 5 | 83.4 ± 4.6 |
